Common to all, as to assay type: in vivo, BALB/c mice
Assay [1] concerns adriamycin induced FSGS mice. Kind of assay: Analysis of urine protein and renal function in mouse FSGS model. Particulars: osthole 30 mg/kg daily intraperitoneal, vs pathological control group. As for the experimental part:
(§1) Experiments were performed on 8-week-old female BALB/c mice. The mice were separated into 3 groups at 8-weeks old. One of the groups were injected intravenously with normal saline to be used as normal controls, where the pathological control group and the osthole treated group were intravenously injected with a single dose of adriamycin (0.1 mg/10 g body weight) to induce FSGS, wherein the osthole treated group is intraperitoneally injected with osthole at a daily dose of 30 mg/kg body weight starting from 6 hours before FSGS induction by adriamycin. After intravenous injection of adriamycin, osthole was continuously given to the osthole treated group through intraperitoneal injection with a daily dose of 30 mg/kg body weight until they were sacrificed 28 days after FSGS induction. The pathological control group were given vehicle by intraperitoneal injection in the same fashion. Urine samples were collected in metabolic cages on days 3, 7, 14, and 21. Mice were sacrificed at day 7 or 28 post disease induction. Renal cortical tissues, spleen and serum were collected and stored properly for further analysis. Mice urine samples were collected by metabolic cages. Proteinuria was first tested with test paper, following the measurement of protein concentration with BCA Protein Assay Kit (PIERCE), where the urinary protein index was illustrated by 24-hour proteinuria (urinary protein concentration/urinary creatinine concentration). In addition, blood was collected through the eye socket, after separation, serum specimen was obtained, which was absorbed into Fuji Ori-Chem Slide and measured by machine (Fuji Photo Film Co., Tokyo, Japan) to read the data.

Assay [2] has as its system adriamycin induced FSGS mice. Nature of the assay: Pathologic evaluation of kidney sections (H&E) in mouse FSGS model. Particulars: osthole 30 mg/kg daily intraperitoneal; 7th and 28th day; FIG. 2. As for the experimental part: as §1, with “[…] Renal pathology was examined under optical microscope and renal lesions was scored. or EPHLs and sclerosis, at least 50 glomeruli in sections” for “Mice urine samples”, “examined for each mouse.” for “collected by metabolic cages. Proteinuria was first tested with test paper, following the measurement of protein concentration with BCA Protein Assay Kit (PIERCE), where the urinary protein index was illustrated by 24-hour proteinuria (urinary protein concentration/urinary creatinine concentration). In addition, blood was collected through the eye socket, after separation, serum specimen was obtained, which was absorbed into Fuji Ori-Chem Slide and measured by machine (Fuji Photo Film Co., Tokyo, Japan) to read the data.”

In assay [3] the test system is adriamycin induced FSGS mice. Nature of the assay: Evaluation of renal fibrosis (collagen IV IHC, Sirius red staining) in mouse FSGS model. The conditions noted are these: osthole 30 mg/kg daily intraperitoneal. The procedure:
as §1, with “analysis.” for “analysis. Mice urine samples were collected by metabolic cages. Proteinuria was first tested with test paper, following the measurement of protein concentration with BCA Protein Assay Kit (PIERCE), where the urinary protein index was illustrated by 24-hour proteinuria (urinary protein concentration/urinary creatinine concentration).”, “immunohistochemistry” for “blood”, “also performed. […] A quantitative image analysis software Pax-it; […], Villa Park, Ill., USA) was used to analyze” for “collected through”, “staining results.” for “eye socket, after separation, serum specimen was obtained, which was absorbed into Fuji Ori-Chem Slide and measured by machine (Fuji Photo Film Co., Tokyo, Japan) to read the data.”

In the next assay the test system is ROS (superoxide anion). Nature of the assay: Reactive oxygen species (ROS) determination in mouse FSGS model. The conditions noted are these: osthole 30 mg/kg daily intraperitoneal, 28th day. The procedure:
Experiments were performed on 8-week-old female BALB/c mice. The mice were separated into 3 groups at 8-weeks old. One of the groups were injected intravenously with normal saline to be used as normal controls, where the pathological control group and the osthole treated group were intravenously injected with a single dose of adriamycin (0.1 mg/10 g body weight) to induce FSGS, wherein the osthole treated group is intraperitoneally injected with osthole at a daily dose of 30 mg/kg body weight starting from 6 hours before FSGS induction by adriamycin. After intravenous injection of adriamycin, osthole was continuously given to the osthole treated group through intraperitoneal injection with a daily dose of 30 mg/kg body weight until they were sacrificed 28 days after FSGS induction. The pathological control group were given vehicle by intraperitoneal injection in the same fashion. Urine samples were collected in metabolic cages on days 3, 7, 14, and 21. […] Lucigenin was used to react with the ROS in urine, and detected with Hidex microplate luminometer (Finland), the results were represented as reactive luminescence units (RLU) per 15 min per milligram dry weight (i.e., RLU/15 min/mg dry weight). ROS in kidney tissues were detected with dihydroethidium (DHE), and quantitation was done by determining the ratio of signal positive nucleus/total nucleus in each kidney trans-section.

The subject of a further assay is Nrf2 pathway. Kind of assay: Anti-oxidative signaling pathway in kidney tissues (Nrf2 Western blot, HO-1 ELISA, GPx activity) in mouse FSGS model. The conditions noted are these: kidney tissue, osthole 30 mg/kg daily intraperitoneal, FIG. 6. The procedure:
as §1, with “analysis.” for “analysis. Mice urine samples were collected by metabolic cages. Proteinuria was first tested with test paper, following the measurement of protein concentration with BCA Protein Assay Kit (PIERCE), where the urinary protein index was illustrated by 24-hour proteinuria (urinary protein concentration/urinary creatinine concentration). In addition, blood was collected through the eye socket, after separation, serum specimen was obtained, which was absorbed into Fuji Ori-Chem Slide and measured by machine (Fuji Photo Film Co., Tokyo, Japan) to read the data.”
Cytoplasmic and nuclear proteins were extracted from renal tissues using a Nuclear Extract Kit (Active Motif, Tokyo, Japan) according to the manufacturer's instructions. Protein extract was separated by electrophoresis and blotted. Target proteins were detected by Western blot analysis using primary antibodies against mouse Nrf2 (Santa Cruz), COX-2 (Santa Cruz), caspase-3 (Cell Signaling Technology, MA, USA), or caspase-9 (Cell Signaling Technology, MA, USA). […] Lastly, secondary antibodies were added and their signals were detected by chemiluminescence.
(§2) Serum PEG2 and renal HO-1 levels in mice were determined by enzyme linked immunosorbent assay according to the manufacturer's (R&D, U.S.A., Active Motif) instructions.
GPx activity in renal tissues was measured using a commercial glutathione peroxidase assay kit (Cayman, Mich., USA) according to the manufacturer's instructions. […]
For orientation: A western blot detects proteins with antibodies after separation by electrophoresis.

Assay [4] deals with adriamycin induced FSGS mice. Kind of assay: F4/80 immunostaining of monocyte/macrophage infiltration in kidney tissues in mouse FSGS model. The conditions noted are these: osthole 30 mg/kg daily intraperitoneal; 28th day; FIG. 7. The procedure: as §1, with “analysis.” for “analysis. Mice urine samples were collected by metabolic cages. Proteinuria was first tested with test paper, following the measurement of protein concentration with BCA Protein Assay Kit (PIERCE), where the urinary protein index was illustrated by 24-hour proteinuria (urinary protein concentration/urinary creatinine concentration).”, “immunohistochemistry” for “blood”, “also performed. […] A quantitative image analysis software Pax-it; […], Villa Park, Ill., USA) was used to analyze” for “collected through”, “staining results.” for “eye socket, after separation, serum specimen was obtained, which was absorbed into Fuji Ori-Chem Slide and measured by machine (Fuji Photo Film Co., Tokyo, Japan) to read the data.”

In the next assay the test system is NF-κB p65. Kind of assay: NF-κB p65 immunostaining in kidney tissues in mouse FSGS model. The conditions noted are these: osthole 30 mg/kg daily intraperitoneal; 28th day; FIG. 8. The procedure: as §1, with “analysis.” for “analysis. Mice urine samples were collected by metabolic cages. Proteinuria was first tested with test paper, following the measurement of protein concentration with BCA Protein Assay Kit (PIERCE), where the urinary protein index was illustrated by 24-hour proteinuria (urinary protein concentration/urinary creatinine concentration).”, “immunohistochemistry” for “blood”, “also performed. […] A quantitative image analysis software Pax-it; […], Villa Park, Ill., USA) was used to analyze” for “collected through”, “staining results.” for “eye socket, after separation, serum specimen was obtained, which was absorbed into Fuji Ori-Chem Slide and measured by machine (Fuji Photo Film Co., Tokyo, Japan) to read the data.”

In the next assay the test system is COX-2 and PGE2. Nature of the assay: Renal COX-2 (Western blot) and serum PGE2 (ELISA) in mouse FSGS model. Particulars: osthole 30 mg/kg daily intraperitoneal, 28th day. As for the experimental part: Experiments were performed on 8-week-old female BALB/c mice. The mice were separated into 3 groups at 8-weeks old. One of the groups were injected intravenously with normal saline to be used as normal controls, where the pathological control group and the osthole treated group were intravenously injected with a single dose of adriamycin (0.1 mg/10 g body weight) to induce FSGS, wherein the osthole treated group is intraperitoneally injected with osthole at a daily dose of 30 mg/kg body weight starting from 6 hours before FSGS induction by adriamycin. […]
Cytoplasmic and nuclear proteins were extracted from renal tissues using a Nuclear Extract Kit (Active Motif, Tokyo, Japan) according to the manufacturer's instructions. […] Target proteins were detected by Western blot analysis using primary antibodies against mouse Nrf2 (Santa Cruz), COX-2 (Santa Cruz), caspase-3 (Cell Signaling Technology, MA, USA), or caspase-9 (Cell Signaling Technology, MA, USA). […] Lastly, secondary antibodies were added and their signals were detected by chemiluminescence.
as §2

The subject of assay [5] is adriamycin induced FSGS mice. Kind of assay: TUNEL measurement of apoptosis in kidney tissues in mouse FSGS model. The conditions noted are these: osthole 30 mg/kg daily intraperitoneal; 28th day; FIG. 10. The procedure: Experiments were performed on 8-week-old female BALB/c mice. The mice were separated into 3 groups at 8-weeks old. One of the groups were injected intravenously with normal saline to be used as normal controls, where the pathological control group and the osthole treated group were intravenously injected with a single dose of adriamycin (0.1 mg/10 g body weight) to induce FSGS, wherein the osthole treated group is intraperitoneally injected with osthole at a daily dose of 30 mg/kg body weight starting from 6 hours before FSGS induction by adriamycin. After intravenous injection of adriamycin, osthole was continuously given to the osthole treated group through intraperitoneal injection with a daily dose of 30 mg/kg body weight until they were sacrificed 28 days after FSGS induction. The pathological control group were given vehicle by intraperitoneal injection in the same fashion. Urine samples were collected in metabolic cages on days 3, 7, 14, and 21. Mice were sacrificed at day 7 or 28 post disease induction. Renal cortical tissues, spleen and serum were collected and stored properly for further analysis. TUNEL (Terminal deoxynucleotidyl transferase dUTP nick end labeling) was used for the detection of apoptosis. Kidney sections were prepared by fixing with formalin and embedded in paraffin. […]

Assay [6] relates to caspase-3, caspase-8 and caspase-9. Nature of the assay: Western blot analysis of caspase-3, caspase-8 and caspase-9 in kidney tissues in mouse FSGS model. The conditions noted are these: kidney tissue. The procedure:
Experiments were performed on 8-week-old female BALB/c mice. The mice were separated into 3 groups at 8-weeks old. One of the groups were injected intravenously with normal saline to be used as normal controls, where the pathological control group and the osthole treated group were intravenously injected with a single dose of adriamycin (0.1 mg/10 g body weight) to induce FSGS, wherein the osthole treated group is intraperitoneally injected with osthole at a daily dose of 30 mg/kg body weight starting from 6 hours before FSGS induction by adriamycin. After intravenous injection of adriamycin, osthole was continuously given to the osthole treated group through intraperitoneal injection with a daily dose of 30 mg/kg body weight until they were sacrificed 28 days after FSGS induction. The pathological control group were given vehicle by intraperitoneal injection in the same fashion. Urine samples were collected in metabolic cages on days 3, 7, 14, and 21. Mice were sacrificed at day 7 or 28 post disease induction. Renal cortical tissues, spleen and serum were collected and stored properly for further analysis. Cytoplasmic and nuclear proteins were extracted from renal tissues using a Nuclear Extract Kit (Active Motif, Tokyo, Japan) according to the manufacturer's instructions. Protein extract was separated by electrophoresis and blotted. Target proteins were detected by Western blot analysis using primary antibodies against mouse Nrf2 (Santa Cruz), COX-2 (Santa Cruz), caspase-3 (Cell Signaling Technology, MA, USA), or caspase-9 (Cell Signaling Technology, MA, USA). Antibodies against histone H3 (Cell Signaling, CO, USA) or β-actin (Santa Cruz) were used as internal controls for the nuclear and cytosolic target proteins, respectively. Lastly, secondary antibodies were added and their signals were detected by chemiluminescence.

Where [7] appears, read: osthole 30 mg/kg daily intraperitoneal, vs pathological control group, FIG. 11.

With `COc1ccc2ccc(=O)oc2c1CC=C(C)C` [osthole], in assay [1] (7th to 28th day, FIG. 1A), the “urine protein concentration (urine protein/urine creatinine ratio)” value was “almost be completely suppressed”. Moreover, the “blood urea nitrogen (BUN)” value in assay [1] (28th day, FIG. 1B) was “lower BUN and Cr concentration, similar to that of the normal control group”. Also, the “serum creatinine (Cr)” value in assay [1] (28th day, FIG. 1C) was “lower BUN and Cr concentration, similar to that of the normal control group”. Further, the “disease progression of glomerular sclerosis (histopathology)” value in assay [2] was “significantly suppress the disease progression of glomerular sclerosis”. The “fibrosis of the renal tissue (Sirius red staining)” value in [3] (28th day, FIG. 4) is “suppress fibrosis of the renal tissue, similar to the normal control group”. The “collagen IV expression in glomerular tissue (IHC)” value in assay [3] (FIG. 3) is “significantly suppress collagen IV expression in glomerular tissue”. In the assay on ROS (superoxide anion) (FIG. 5A), the “superoxide anion (ROS) in serum” value is “suppressed exhibition of such phenomenon”. The “superoxide anion (ROS) in kidney tissue” value in the assay with ROS (superoxide anion) (FIG. 5B) is recorded as “suppressed exhibition of such phenomenon”. Also, in the assay on Nrf2 pathway, the GPx activity result was “significantly increase HO-1 expression and GPx activity”; the HO-1 expression entry is “significantly increase HO-1 expression and GPx activity”. For the same compound, in the assay with Nrf2 pathway (vs pathological control group), the “Nrf2 translocation into the nucleus” value is given as “significantly increase the Nrf2 translocation”. Further, the “monocyte/macrophage infiltration (F4/80) in kidney tissues” value in assay [4] is on record as “significantly reduced infiltration”. In addition, in the assay on NF-κB p65, the “NF-κB p65 nuclear translocation in kidney tissues” value is “can be suppressed by osthole”. For the same compound, in the assay with COX-2 and PGE2 (FIG. 9A-B), the “COX-2 expression level (renal)” value is listed as “restored to levels similar to the normal control group”. Moreover, the “PGE2 expression level (serum)” value with COX-2 and PGE2 (FIG. 9C) is “restored to levels similar to the normal control group”. In addition, in assay [5], the “apoptosis in kidney tissues (TUNEL staining)” value is recorded as “can be suppressed by administration of osthole”. Also, the “expression level of caspase-8” value in assay [6] (data not shown) is recorded as “did not show significant difference”. In addition, in assay [6] (setting [7]), the “caspase-3 in activated state (p17 fragment)” value is given as “suppressed significantly” and the “caspase-9 in activated state (p37 fragment)” value is reported as “suppressed significantly”.

Source of the values: patent publication US9393226B2, “Use of osthole for treating focal segmental glomerulosclerosis” (National Defense Medical Center, priority 2014, dated 2016).
